Where two headings read alike, the source gives them in different places.
What was measured:
[1] = system: Zymoseptoria tritici isolates; test: Growth tests on solid agar at discriminatory fungicide concentrations; assay type: cell-based; conditions: AE agar, fluopyram 5 mg.L^-1, 18 DPI (procedure of Fig 6)
Description: Fig 6 Resistance to SHA-SDHIs in Z. tritici EU populations. […] Sensitivity data are sorted by genotype according to the presence of the ZtSDHC3 gene. ** p value of 0.0029 in Welch’s corrected unpaired t-test. (B) Solid agar growth of a collection of 93 Z. tritici isolates sampled in 2009 (same set as above). Individual strains from this collection are boxed and numbered 1 to 93. Boxes A and B correspond to reference resistant strains 06STD024 and 07STGB009 respectively. Box C corresponds to IPO323 reference sensitive isolate. The yellow framed boxes correspond to strains carrying the ZtSDHC3 gene. Yellow arrow designates strain 09STIR20.1 (number 78) carrying a non-functional alt-SDHC (frameshift, S6 Table).
A large scale spotting assay of 96 isolates (Fig 6) was performed using the V&P 96 floating pin tool VP408FP6 (V&P Scientific), equipped with flat tip FP6 pins of 1.58 mm diameter (resulting in approx. 0.4 μl transfer volume). Source cultures for cell spotting were grown in 100 μl YPD liquid medium in a 96 well flat bottom plate (Corning, 3370) at 18°C for 11 days (average cell density of 3.5·10^6/ml), then diluted 1:2x in fresh YPD medium and incubated for another 1.5 h before transfer with the pin tool (approx. 700 cells per spot) onto AE agar with or without fungicide. Plates were incubated at 20°C in the dark for up to 18 days. Smaller scale spotting assays (Figs 4 and 8) were performed using 5 days V8-agar plates inoculums adjusted to 2.10^6 spores.mL^-1 in water and diluted in steps of 3. 2μL of spore suspension was spotted on the plates, and the plates were incubated shielded from light at 21°C for 6 days.

[2] = system: Zymoseptoria tritici progeny isolates; assay type: cell-based; conditions: for phenotype flag S (sensitive): 1 = sensitive; for Phenotype sensitive (S) flag: fluopyram 10 mg.L^-1 agar, 1 in S column; for phenotype flag, sensitive (S): growth on fluopyram 10 mg.L^-1 agar; for phenotype flag, sensitive (S) / Phenotyping Growth Fluopyram 10ppm Sensitive: 1 = scored sensitive; for Phenotype scored sensitive (S): agar growth on fluopyram 10 mg.L^-1, 1 = scored in this class

O=C(NCCc1ncc(C(F)(F)F)cc1Cl)c1ccccc1C(F)(F)F [Fluopyram]
Growth phenotype on SDHI-amended plate ([1]; strain 06STD024): Very strong | Growth phenotype on SDHI-amended plate ([1]; strain 07STGB009): Very strong | Growth phenotype on SDHI-amended plate ([1]; strain 09STD041): Weak | Growth phenotype on SDHI-amended plate ([1]; strain 09STD053): Weak | Growth phenotype on SDHI-amended plate ([1]; strain 09STF011): Moderate | Growth phenotype on SDHI-amended plate ([1]; strain 09STF037): Very weak | Growth phenotype on SDHI-amended plate ([1]; strain 09STF112): Strong | Growth phenotype on SDHI-amended plate ([1]; strain 09STIR20.3): Very weak | Growth phenotype on SDHI-amended plate ([1]; strain IPO323): No | Growth phenotype on SDHI-amended plate ([1]; strain IPO94269): No | phenotype flag S (sensitive) ([2]; progeny isolate 25, cross IPO323XD024): 1 | phenotype flag S (sensitive) ([2]; progeny isolate 27, cross IPO323XD024): 1 | phenotype flag S (sensitive) ([2]; progeny isolate 28, cross IPO323XD024): 1 | phenotype flag S (sensitive) ([2]; progeny isolate 31, cross IPO323XD024): 1 | phenotype flag S (sensitive) ([2]; progeny isolate 32, cross IPO323XD024): 1 | phenotype flag S (sensitive) ([2]; progeny isolate 34, cross IPO323XD024): 1 | phenotype flag S (sensitive) ([2]; progeny isolate 37, cross IPO323XD024): 1 | phenotype flag S (sensitive) ([2]; progeny isolate 39, cross IPO323XD024): 1 | phenotype flag S (sensitive) ([2]; progeny isolate 40, cross IPO323XD024): 1 | phenotype flag S (sensitive) ([2]; progeny isolate 43, cross IPO323XD024): 1 | phenotype flag S (sensitive) ([2]; progeny isolate 46, cross IPO323XD024): 1 | phenotype flag S (sensitive) ([2]; progeny isolate 49, cross IPO323XD024): 1 | phenotype flag S (sensitive) ([2]; progeny isolate 50, cross IPO323XD024): 1 | phenotype flag S (sensitive) ([2]; progeny isolate 51, cross IPO323XD024): 1 | phenotype flag S (sensitive) ([2]; progeny isolate 53, cross IPO323XD024): 1 | phenotype flag S (sensitive) ([2]; progeny isolate 54, cross IPO323XD024): 1 | phenotype flag S (sensitive) ([2]; progeny isolate 55, cross IPO323XD024): 1 | phenotype flag S (sensitive) ([2]; progeny isolate 56, cross IPO323XD024): 1 | phenotype flag S (sensitive) ([2]; progeny isolate 57, cross IPO323XD024): 1 | phenotype flag S (sensitive) ([2]; progeny isolate 59, cross IPO323XD024): 1 | phenotype flag S (sensitive) ([2]; progeny isolate 60, cross IPO323XD024): 1 | phenotype flag S (sensitive) ([2]; progeny isolate 62, cross IPO323XD024): 1 | phenotype flag S (sensitive) ([2]; progeny isolate 63, cross IPO323XD024): 1 | phenotype flag S (sensitive) ([2]; progeny isolate 65, cross IPO323XD024): 1 | phenotype scored sensitive (S), flag 1 ([2]; progeny isolate 67, cross IPO323XD024, fluopyram 10 mg.L^-1 agar): 1 | phenotype scored sensitive (S), flag 1 ([2]; progeny isolate 71, cross IPO323XD024, fluopyram 10 mg.L^-1 agar): 1 | phenotype scored sensitive (S), flag 1 ([2]; progeny isolate 72, cross IPO323XD024, fluopyram 10 mg.L^-1 agar): 1 | phenotype scored sensitive (S), flag 1 ([2]; progeny isolate 75, cross IPO323XD024, fluopyram 10 mg.L^-1 agar): 1 | phenotype scored sensitive (S), flag 1 ([2]; progeny isolate 77, cross IPO323XD024, fluopyram 10 mg.L^-1 agar): 1 | phenotype scored sensitive (S), flag 1 ([2]; progeny isolate 78, cross IPO323XD024, fluopyram 10 mg.L^-1 agar): 1 | phenotype scored sensitive (S), flag 1 ([2]; progeny isolate 82, cross IPO323XD024, fluopyram 10 mg.L^-1 agar): 1 | phenotype scored sensitive (S), flag 1 ([2]; progeny isolate 83, cross IPO323XD024, fluopyram 10 mg.L^-1 agar): 1 | phenotype scored sensitive (S), flag 1 ([2]; progeny isolate 84, cross IPO323XD024, fluopyram 10 mg.L^-1 agar): 1 | phenotype scored sensitive (S), flag 1 ([2]; progeny isolate 88, cross IPO323XD024, fluopyram 10 mg.L^-1 agar): 1 | phenotype scored sensitive (S), flag 1 ([2]; progeny isolate 89, cross IPO323XD024, fluopyram 10 mg.L^-1 agar): 1 | phenotype scored sensitive (S), flag 1 ([2]; progeny isolate 90, cross IPO323XD024, fluopyram 10 mg.L^-1 agar): 1 | phenotype scored sensitive (S), flag 1 ([2]; progeny isolate 91, cross IPO323XD024, fluopyram 10 mg.L^-1 agar): 1 | phenotype scored sensitive (S), flag 1 ([2]; progeny isolate 92, cross IPO323XD024, fluopyram 10 mg.L^-1 agar): 1 | phenotype scored sensitive (S), flag 1 ([2]; progeny isolate 102, cross IPO323XD024, fluopyram 10 mg.L^-1 agar): 1 | phenotype scored sensitive (S), flag 1 ([2]; progeny isolate 103, cross IPO323XD024, fluopyram 10 mg.L^-1 agar): 1 | phenotype scored sensitive (S), flag 1 ([2]; progeny isolate 106, cross IPO323XD024, fluopyram 10 mg.L^-1 agar): 1 | phenotype scored sensitive (S), flag 1 ([2]; progeny isolate 107, cross IPO323XD024, fluopyram 10 mg.L^-1 agar): 1 | Phenotype sensitive (S) flag ([2]; progeny isolate 150 of cross IPO323XD024): 1 | Phenotype sensitive (S) flag ([2]; progeny isolate 151 of cross IPO323XD024): 1 | Phenotype sensitive (S) flag ([2]; progeny isolate 152 of cross IPO323XD024): 1 | Phenotype sensitive (S) flag ([2]; progeny isolate 153 of cross IPO323XD024): 1 | Phenotype sensitive (S) flag ([2]; progeny isolate 155 of cross IPO323XD024): 1 | Phenotype sensitive (S) flag ([2]; progeny isolate 156 of cross IPO323XD024): 1 | Phenotype sensitive (S) flag ([2]; progeny isolate 158 of cross IPO323XD024): 1 | Phenotype sensitive (S) flag ([2]; progeny isolate 161 of cross IPO323XD024): 1 | Phenotype sensitive (S) flag ([2]; progeny isolate 162 of cross IPO323XD024): 1 | Phenotype sensitive (S) flag ([2]; progeny isolate 163 of cross IPO323XD024): 1 | Phenotype sensitive (S) flag ([2]; progeny isolate 166 of cross IPO323XD024): 1 | Phenotype sensitive (S) flag ([2]; progeny isolate 168 of cross IPO323XD024): 1 | Phenotype sensitive (S) flag ([2]; progeny isolate 169 of cross IPO323XD024): 1 | Phenotype sensitive (S) flag ([2]; progeny isolate 173 of cross IPO323XD024): 1 | Phenotype sensitive (S) flag ([2]; progeny isolate 174 of cross IPO323XD024): 1 | Phenotype sensitive (S) flag ([2]; progeny isolate 175 of cross IPO323XD024): 1 | Phenotype sensitive (S) flag ([2]; progeny isolate 176 of cross IPO323XD024): 1 | Phenotype sensitive (S) flag ([2]; progeny isolate 177 of cross IPO323XD024): 1 | Phenotype sensitive (S) flag ([2]; progeny isolate 182 of cross IPO323XD024): 1 | Phenotype sensitive (S) flag ([2]; progeny isolate 184 of cross IPO323XD024): 1 | Phenotype sensitive (S) flag ([2]; progeny isolate 185 of cross IPO323XD024): 1 | phenotype flag, sensitive (S) ([2]; progeny isolate 192, cross IPO323XD024): 1 | phenotype flag, sensitive (S) ([2]; progeny isolate 193, cross IPO323XD024): 1 | phenotype flag, sensitive (S) ([2]; progeny isolate 195, cross IPO323XD024): 1 | phenotype flag, sensitive (S) ([2]; progeny isolate 197, cross IPO323XD024): 1 | phenotype flag, sensitive (S) ([2]; progeny isolate 201, cross IPO323XD024): 1 | phenotype flag, sensitive (S) ([2]; progeny isolate 207, cross IPO323XD024): 1 | phenotype flag, sensitive (S) ([2]; progeny isolate 209, cross IPO323XD024): 1 | phenotype flag, sensitive (S) ([2]; progeny isolate 210, cross IPO323XD024): 1 | phenotype flag, sensitive (S) ([2]; progeny isolate 211, cross IPO323XD024): 1 | phenotype flag, sensitive (S) ([2]; progeny isolate 215, cross IPO323XD024): 1 | phenotype flag, sensitive (S) ([2]; progeny isolate 217, cross IPO323XD024): 1 | phenotype flag, sensitive (S) ([2]; progeny isolate 218, cross IPO323XD024): 1 | phenotype flag, sensitive (S) ([2]; progeny isolate 220, cross IPO323XD024): 1 | phenotype flag, sensitive (S) ([2]; progeny isolate 221, cross IPO323XD024): 1 | phenotype flag, sensitive (S) ([2]; progeny isolate 223, cross IPO323XD024): 1 | phenotype flag, sensitive (S) ([2]; progeny isolate 224, cross IPO323XD024): 1 | phenotype flag, sensitive (S) ([2]; progeny isolate 225, cross IPO323XD024): 1 | phenotype flag, sensitive (S) ([2]; progeny isolate 227, cross IPO323XD024): 1 | phenotype flag, sensitive (S) ([2]; progeny isolate 228, cross IPO323XD024): 1 | phenotype flag, sensitive (S) ([2]; progeny isolate 229, cross IPO323XD024): 1 | Phenotype scored sensitive (S) ([2]; progeny isolate 230 of cross IPO323 x D024): 1 | Phenotype scored sensitive (S) ([2]; progeny isolate 235 of cross IPO323 x D024): 1 | Phenotype scored sensitive (S) ([2]; progeny isolate 237 of cross IPO323 x D024): 1 | Phenotype scored sensitive (S) ([2]; progeny isolate 238 of cross IPO323 x D024): 1 | Phenotype scored sensitive (S) ([2]; progeny isolate 239 of cross IPO323 x D024): 1 | Phenotyping Growth Fluopyram 10ppm Sensitive ([2]; progeny strain 3, cross IPO323XD024): 1 | Phenotyping Growth Fluopyram 10ppm Sensitive ([2]; progeny strain 10, cross IPO323XD024): 1 | Phenotyping Growth Fluopyram 10ppm Sensitive ([2]; progeny strain 13, cross IPO323XD024): 1 | Phenotyping Growth Fluopyram 10ppm Sensitive ([2]; progeny strain 14, cross IPO323XD024): 1 | Phenotyping Growth Fluopyram 10ppm Sensitive ([2]; progeny strain 16, cross IPO323XD024): 1 | Phenotyping Growth Fluopyram 10ppm Sensitive ([2]; progeny strain 17, cross IPO323XD024): 1 | Phenotyping Growth Fluopyram 10ppm Sensitive ([2]; progeny strain 18, cross IPO323XD024): 1 | Phenotyping Growth Fluopyram 10ppm Sensitive ([2]; progeny strain 19, cross IPO323XD024): 1 | Phenotyping Growth Fluopyram 10ppm Sensitive ([2]; progeny strain 20, cross IPO323XD024): 1 | Phenotyping Growth Fluopyram 10ppm Sensitive ([2]; progeny strain 21, cross IPO323XD024): 1 | Phenotyping Growth Fluopyram 10ppm Sensitive ([2]; progeny strain 23, cross IPO323XD024): 1 | Phenotyping Growth Fluopyram 10ppm Sensitive ([2]; strain D024 (parent), cross IPO323XD024, 0 = not): 0 | Phenotyping Growth Fluopyram 10ppm Sensitive ([2]; strain IPO323 (parent), cross IPO323XD024, 0 = not): 1
